# Assay: Human HepG2 cell viability assay in 384 well format
# Assay type: toxicity, cell-based
# Set-up: dose 125 nL, time 70.5 hour; concentration not given beside the values
# Details: HepG2 cells, read-out: Inhibition
smiles,measurement,value
CC(Cn1cccn1)NC(=O)N1CCN(Cc2ccco2)CC1 (configuration not stated),cytotoxicity at 70.5 h,0.805%
Cc1ccoc1C(=O)N1CCCC(CNS(C)(=O)=O)C1 (configuration not stated),cytotoxicity at 70.5 h,18%
Cc1ccc(-c2ncc(C(=O)NCCNC(=O)C3CC3)s2)c(C)c1,cytotoxicity at 70.5 h,-6.37%
Cc1nc(C(C)C)sc1C(=O)NCCNc1ncccc1C#N,cytotoxicity at 70.5 h,-1.44%
CC(=O)N1CCCN(C(=O)NC(C)Cn2cccn2)CC1 (configuration not stated),cytotoxicity at 70.5 h,-3.94%
CN1N=C(C(=O)N2CCCC(n3cccn3)C2)CCC1=O (configuration not stated),cytotoxicity at 70.5 h,-3.66%
COc1cc(C)nc(N2CCN(C(=O)c3cc(C)no3)CC2)n1,cytotoxicity at 70.5 h,26.3%
Cc1ccc(-c2ncc(C(=O)NS(C)(=O)=O)s2)c(C)c1,cytotoxicity at 70.5 h,-1.13%
CN(Cc1cn(-c2ccccc2)nn1)C1CCCN(c2cccnn2)C1 (configuration not stated),cytotoxicity at 70.5 h,-3.67%
Cc1nc(C)n(C2CCCN(C(=O)c3csc(C)n3)C2)n1 (configuration not stated),cytotoxicity at 70.5 h,-5.49%
O=C(c1cc2cc(I)ccc2[nH]1)N1CCC(Nc2cccnn2)CC1,cytotoxicity at 70.5 h,1.42%
CN(CCNC(=O)NCc1ccsc1)C1CCCC1,cytotoxicity at 70.5 h,-8.28%
CC(C)CCc1nc(CNCC2CN(C)CCO2)cs1 (configuration not stated),cytotoxicity at 70.5 h,-1.37%
Cc1nccn1C1CCCN(C(=O)c2cccc(OCC(N)=O)c2)C1 (configuration not stated),cytotoxicity at 70.5 h,-10.4%
Cc1nc(CNCC2CN(C3CC3)CCO2)cs1 (configuration not stated),cytotoxicity at 70.5 h,23.8%
Cc1nc(C2CCCN2C(=O)CCCn2cncn2)no1 (configuration not stated),cytotoxicity at 70.5 h,-7.37%
Cn1cnc2c1CCN(Cc1csc(C3CCCCC3)n1)C2,cytotoxicity at 70.5 h,-14.4%
Cc1noc(C(C)C)c1C(=O)NCCCN1CCC(C)CC1,cytotoxicity at 70.5 h,-13%
Cc1noc(C(C)C)c1C(=O)NCCN1CCOCC1,cytotoxicity at 70.5 h,-17.9%
Cc1noc(C(C)C)c1C(=O)NCCC(=O)N1CCCCC1,cytotoxicity at 70.5 h,-19%
COCCN1CCN(CC(C)(O)c2cccc(C(F)(F)F)c2)CC1 (configuration not stated),cytotoxicity at 70.5 h,-12.6%
COCc1nc(C(=O)N2CCCC(n3ccnc3C)C2)cs1 (configuration not stated),cytotoxicity at 70.5 h,-18.6%
CCc1n[nH]c(C2CN(C(=O)c3ccnc(C)n3)CCO2)n1 (configuration not stated),cytotoxicity at 70.5 h,13.5%
CN(C)c1ncccc1CNS(=O)(=O)c1ccc(F)cc1F,cytotoxicity at 70.5 h,-12.9%
CC(=O)N1CCCN(C(=O)NCCOc2ccc3c(c2)OCO3)CC1,cytotoxicity at 70.5 h,-8.5%
CC(C)CS(=O)(=O)CC(=O)NC(C)c1nnc2n1CCC2 (configuration not stated),cytotoxicity at 70.5 h,-2.61%
O=C(NCCOc1ccc2c(c1)OCO2)N1CCCC(CO)C1 (configuration not stated),cytotoxicity at 70.5 h,-10%
Cc1nn(C)c(N(C)C)c1CNC(C)COc1ccccc1F (configuration not stated),cytotoxicity at 70.5 h,-11.1%
CC(NC(=O)CCC1CCCCC1)c1nnc2n1CCC2 (configuration not stated),cytotoxicity at 70.5 h,-4.91%
c1ccc(-n2ccc(CN3CCCCC3Cn3cncn3)n2)cc1 (configuration not stated),cytotoxicity at 70.5 h,-12.9%
Cc1nccn1C1CCCN(C(=O)c2cccc(Cn3ccnc3)c2)C1 (configuration not stated),cytotoxicity at 70.5 h,-1.32%
COCc1nc(C(=O)N2CCCC(n3ccnc3C(C)C)C2)cs1 (configuration not stated),cytotoxicity at 70.5 h,-12.2%
CCn1nc2c(cc1=O)CN(CC(=O)Nc1nnc(C)s1)CC2,cytotoxicity at 70.5 h,-15%
CN1CCOC(CNCc2csc(C3CCCC3)n2)C1 (configuration not stated),cytotoxicity at 70.5 h,-1.7%
CCc1nc(C2CCCN2C(=O)CCCn2cncn2)no1 (configuration not stated),cytotoxicity at 70.5 h,-8.49%
Cc1nnc(NC(=O)CN2CCc3nn(C(C)C)c(=O)cc3C2)s1,cytotoxicity at 70.5 h,-6.14%
CC1CCCN(C(=O)CNC(=O)c2ccoc2)C1 (configuration not stated),cytotoxicity at 70.5 h,49.9%
Cc1cc(CN2CCCC(Cn3cncn3)C2)no1 (configuration not stated),cytotoxicity at 70.5 h,16%
CN(C)c1ccc(C(=O)N2CCCN(Cc3cscn3)CC2)nn1,cytotoxicity at 70.5 h,27.8%
COc1ccc(-c2nnc(CNCCn3cc(C)cn3)o2)cc1,cytotoxicity at 70.5 h,14.6%
CN1CCC/C1=N\S(=O)(=O)c1ccc(NC(=O)c2ccsc2)cc1,cytotoxicity at 70.5 h,-11.8%
Cc1ccc(C(=O)Nc2ccc(S(=O)(=O)/N=C3\CCCN3C)cc2)s1,cytotoxicity at 70.5 h,-10%
Cc1nc(CN2CCN(C(=O)c3ccnc(N(C)C)c3)CC2)cs1,cytotoxicity at 70.5 h,-14.4%
CN(C(=O)c1ccc(-n2ncc(C#N)c2N)cc1)C1CCCC1,cytotoxicity at 70.5 h,-1.19%
CCc1ccsc1C(=O)N1CCN(CC(N)=O)CC1,cytotoxicity at 70.5 h,13.8%
CCN(Cc1cccc2c1OCO2)C(=O)Nc1ccccn1,cytotoxicity at 70.5 h,-9.07%
Cc1cc(NC(=O)CN2CCC(N3CCNC3=O)CC2)on1,cytotoxicity at 70.5 h,-5.65%
CCc1ccsc1C(=O)N1CCN(CCN2C(=O)CCC2=O)CC1,cytotoxicity at 70.5 h,-3.69%
Cc1cnn(CC2CCCN2CC(=O)Nc2nccs2)c1 (configuration not stated),cytotoxicity at 70.5 h,3.35%
Cc1ccc(OCC(O)CN2CCC(Cn3cc(C)cn3)CC2)cc1 (configuration not stated),cytotoxicity at 70.5 h,-0.66%
CCC(O)CN1CCN(C(=O)c2sccc2C2CC2)CC1 (configuration not stated),cytotoxicity at 70.5 h,-2.13%
c1ccc(-c2cc(CN3CCCC(Cn4cncn4)C3)on2)cc1 (configuration not stated),cytotoxicity at 70.5 h,-1.24%
Cc1cnn(CCNCc2nnc(-c3ccc(F)cc3)o2)c1,cytotoxicity at 70.5 h,-10.4%
Cc1cnn(CC2CCCN2CC(=O)Nc2cc(C)on2)c1 (configuration not stated),cytotoxicity at 70.5 h,0.558%
CC(C)c1nc(CN(C)C2CCN(Cc3nnc(C4CC4)o3)C2)no1 (configuration not stated),cytotoxicity at 70.5 h,1.8%
CCc1nc(CN(C)C2CCN(Cc3nnc(C4CCC4)o3)C2)no1 (configuration not stated),cytotoxicity at 70.5 h,-0.232%
Cc1nc(CN(C)C2CCN(Cc3nnc(C4CC4)o3)C2)no1 (configuration not stated),cytotoxicity at 70.5 h,2.48%
Cc1cc(C)n(CC2CN(Cc3nc(C4CC4)no3)CCO2)n1 (configuration not stated),cytotoxicity at 70.5 h,-4.87%
CN1CCCc2cc(CNC(=O)c3ccncc3)ccc21,cytotoxicity at 70.5 h,33.4%
CC(C)Sc1ncccc1C(=O)NCc1ccc(CS(C)(=O)=O)cc1,cytotoxicity at 70.5 h,6.05%
CN1N=C(C(=O)NCc2ccc3c(c2)CCCN3C)CCC1=O,cytotoxicity at 70.5 h,5.34%
Cc1cc(C)c(CNC(=O)N2CCCC2c2ccccc2)c(=O)[nH]1 (configuration not stated),cytotoxicity at 70.5 h,2.02%
Cc1cc(C)c(CNC(=O)N2CCCC2c2cccn2C)c(=O)[nH]1 (configuration not stated),cytotoxicity at 70.5 h,5.45%
O=C(NCCNc1cnccn1)N1CCN(Cc2cccnc2)CC1,cytotoxicity at 70.5 h,33.3%
O=S(=O)(NCc1ccccc1Cn1cncn1)C1CCCC1,cytotoxicity at 70.5 h,2.05%
CC(=O)N1CCN(C(=O)C(C)n2cncn2)CC1 (configuration not stated),cytotoxicity at 70.5 h,5.31%
Cc1cnn(C2CCCN(C(=O)c3ccnc(-n4ccnc4)c3)C2)c1 (configuration not stated),cytotoxicity at 70.5 h,-0.996%
CCOCCC(=O)N1CCCN(Cc2csc(CC)n2)CC1,cytotoxicity at 70.5 h,-0.403%
Cc1ccc(NC2CCN(C(=O)COCC(F)(F)F)CC2)nn1,cytotoxicity at 70.5 h,10.1%
Cc1n[nH]c(C2CN(C(=O)Cn3ccccc3=O)CCO2)n1 (configuration not stated),cytotoxicity at 70.5 h,7.95%
CCCc1nc(CN2CCCC(Cn3cncn3)C2)no1 (configuration not stated),cytotoxicity at 70.5 h,3.03%
COC(CNC(=O)N1CCC(n2cncn2)CC1)c1ccccc1 (configuration not stated),cytotoxicity at 70.5 h,6.02%
Cc1ccc(N2CCCC(NCC(=O)NCC3CC3)C2)nn1 (configuration not stated),cytotoxicity at 70.5 h,1.19%
CCc1nc(CN2CCCN(C(=O)CCc3ccco3)CC2)cs1,cytotoxicity at 70.5 h,27.3%
O=C(c1cnc(C2CC2)s1)N1CCCCC1Cn1cccn1 (configuration not stated),cytotoxicity at 70.5 h,0.664%
CCc1cc(C)c(C(=O)N2CCCC2CC(=O)c2cnn(C)c2)o1 (configuration not stated),cytotoxicity at 70.5 h,6.36%
CCc1nc(CN(C)C2CCN(CCn3cc(C#N)cn3)C2)no1 (configuration not stated),cytotoxicity at 70.5 h,37.1%
c1csc(-c2nc(CN3CCOC(Cn4cncn4)C3)co2)c1 (configuration not stated),cytotoxicity at 70.5 h,-0.51%
O=C(c1cnc(-c2cccs2)s1)N1CCCN2CCCC2C1 (configuration not stated),cytotoxicity at 70.5 h,-5.78%
Cc1ccc(N2CCCC(NCc3cscn3)C2)nn1 (configuration not stated),cytotoxicity at 70.5 h,-11.8%
CCOc1nnc(CNC2CCCN(c3ccc(C)nn3)C2)s1 (configuration not stated),cytotoxicity at 70.5 h,-1.05%
Cc1ccc(NC2CCN(C(=O)Cc3csc(C)n3)CC2)nn1,cytotoxicity at 70.5 h,-9.75%
COc1ccccc1C(=O)N1CCCC1Cn1cc(C)cn1 (configuration not stated),cytotoxicity at 70.5 h,-14.4%
CCCc1nc(CN2CCOC(CNc3cccnn3)C2)cs1 (configuration not stated),cytotoxicity at 70.5 h,-11.7%
CC(O)CN1CCN(C(=O)c2ccc(Cn3cccn3)cc2)CC1 (configuration not stated),cytotoxicity at 70.5 h,-7.08%
CCc1nc(CN(C)C2CCN(Cc3ccc(C#N)cc3F)C2)no1 (configuration not stated),cytotoxicity at 70.5 h,14.4%
Cc1nn(C)c(Cl)c1C1CCCN1C(=O)c1nccnc1N (configuration not stated),cytotoxicity at 70.5 h,-11.6%
O=C(NCCc1cccc(F)c1)NCC(O)c1cccc(F)c1 (configuration not stated),cytotoxicity at 70.5 h,-5.32%
COCc1ccccc1CNCc1c(C)nn(C)c1N(C)C,cytotoxicity at 70.5 h,-0.163%
CN(C)c1ccc(CCNC(=O)NCc2ccc(N(C)C)nc2)cc1,cytotoxicity at 70.5 h,-3.36%
CCOc1cccc(CNC(=O)NCC(O)c2cccc(F)c2)c1 (configuration not stated),cytotoxicity at 70.5 h,10.6%
O=C(c1cccc2c1OCO2)N1CCCC(n2cccn2)C1 (configuration not stated),cytotoxicity at 70.5 h,-9.01%
Fc1cccc(-c2nc(CN3CCOC(Cn4cccn4)C3)co2)c1 (configuration not stated),cytotoxicity at 70.5 h,-11.5%
O=C(NCCN1CCOCC1)NCC(O)c1cccc(F)c1 (configuration not stated),cytotoxicity at 70.5 h,-3.47%
Cc1nc(C)n(CC2CCCN(c3ncnc4c3CCC4)C2)n1 (configuration not stated),cytotoxicity at 70.5 h,26.1%
Cc1nn(C)c(Cl)c1C1CCCN1C(=O)c1cc(Cl)c[nH]1 (configuration not stated),cytotoxicity at 70.5 h,-17.6%
O=C(O)c1ccc(S(=O)(=O)Nc2ccc(Cl)c(F)c2)c(F)c1,cytotoxicity at 70.5 h,-5.1%
COCCOc1ncccc1CNCc1c(C)nn(C)c1N(C)C,cytotoxicity at 70.5 h,2.93%
c1cnc(-c2nc(CN3CCOC(Cn4cncn4)C3)cs2)nc1 (configuration not stated),cytotoxicity at 70.5 h,11.7%
CC(C)(C)c1nc(CN2CCCC(Cn3cncn3)C2)cs1 (configuration not stated),cytotoxicity at 70.5 h,25.2%
CCOC(=O)NC(C(=O)NCc1ccc(N2CCCCC2)nc1)C(C)C (configuration not stated),cytotoxicity at 70.5 h,-8.83%
COCc1cccc(CNCc2c(C)nn(C)c2N(C)C)c1,cytotoxicity at 70.5 h,42.4%
